Measured values as given in patent US5416222A, “3-pyrrolidine methanamines wherein the alpha-carbon is substituted by 1 or 2 lower alkyl groups which are intermediates for pyridone-carboxylic acid derivatives” (Daiichi Seiyaku Co., Ltd., priority 1985, dated 1995).
Converted amounts (≈) assume the structure as drawn.

Columns and labels:
physchem = assay type: physicochemical; conditions: water
Description: (§1) The water-solubility and acute toxicity of the compounds of the present invention and the comparative compounds, were measured. The results obtained are shown hereunder. The water-solubility was measured by the following method.
(i) Preparation of standard solution
About 400 μg of the sample to be measured was accurately weighed (the weight was defined as W μg), and 0.1N NaOH solution was added thereto to bring the whole volume to 50 ml. The UV absorbance of a given amount of the solution was measured and the measured absorbance was defined as A1.
(ii) Preparation of sample to be measured
Distilled water was added to the sample to be measured (fine powder) in such amount that the sample was not completely dissolved but suspended, and then the suspension was vigorously agitated at room temperature (between 23° and 26° C.) for 30 minutes. Insoluble matter of the sample was removed therefrom by filtration, after which 3 ml sample of the filtrate (satulated aqueous solution of the sample) was taken. 3 ml of 0.2N NaOH solution was added to the filtrate sample to bring the total volume to 6 ml (i.e. the filtrate was diluted to 50% concentration.) To 1 ml of the resulting solution, 0.1N NaOH solution was further added to bring the total volume to 25 ml […]. In this connection, degree of dilution was occasionally changed, depending on degree of UV absorbance. The UV absorbance of the given amount of the solution was measured and the resulting absorbance was defined to as A2. Where the number of dilution is N, water-solubility (s) is obtained from the following equation: [formula]

[1] = absorption after oral administration to rats; assay type: in vivo; conditions: rat, 20 mg/kg; for half-life: serum half life, 0.693/Kel; for Cmax / AUC(0-t) at 6 h: serum; for Cmax: 5 rats per group; for AUC(0-t) at 6 h: zero to 6 h, trapezoidal method, read-out: AUC0-6H
Description: The compounds of the present invention and the comparative compound were orally given to rats (one group: 5 rats) at a dose of 20 mg/kg to measure the oral absorption of the compounds. The concentration of the compound in the blood of the rat was measured at 15 minutes, 30 minutes, and 1, 2, 3, 4, and 6 hours after administration.
Serum half lives (T1/2) were calculated as 0.693/Kel, where Kel is the elimination rate constant determined by linear regression analysis of the natural logarithm of serum concentration-time data. The area under the serum concentration-versus time curve from zero to 6 h (AUC0-6H) was calculated by the trapezoidal method, The results obtained are as follows: […]

mouse = assay: acute toxicity to mouse; assay type: in vivo; conditions: 200 mg/kg; i.v.
Description: as §1
*200 mg/kg; i.v, (deaths/total number) As is obvious from the above

S. aureus, 209P = assay: antimicrobial activity, MIC, standard process of Japan Society of Chemotherapy; assay type: cell-based; conditions: for MIC: Staphylococcus aureus, read-out: minimum growth inhibitory concentration (MIC)
Description: (§2) The antimicrobial activities of the compounds of the present invention were determined according to a standard process designated by the Japan Society of Chemotherapy and the minimum growth inhibitory concentrations (MIC) (μg/ml) the compounds were determined.

S. epidermidis, 56500 = assay: as above; assay type: cell-based; conditions: for minimum growth inhibitory concentration (MIC): S. epidermidis; for MIC: Staphylococcus epidermidis, 56500, S. epidermidis, read-out: minimum growth inhibitory concentration (MIC)
Description: as §2

Ps. aeruginosa, 2063 = assay: as above; assay type: cell-based; conditions: for minimum growth inhibitory concentration (MIC): Ps. aeruginosa; for MIC: Pseudomonas aeruginosa, 2063, Ps. aeruginosa, read-out: minimum growth inhibitory concentration (MIC)
Description: as §2

Pr. vulgaris, 3167 = assay: as above; assay type: cell-based; conditions: for minimum growth inhibitory concentration (MIC): Pr. vulgaris; for MIC: Proteus vulgaris, 3167, Pr. vulgaris, read-out: minimum growth inhibitory concentration (MIC)
Description: as §2

[2] = system: Str. faecalis, ATCC 19433; assay: as above; assay type: cell-based; conditions: for minimum growth inhibitory concentration (MIC): Str. faecalis; for MIC: Enterococcus faecalis, ATCC19433, Str. faecalis, read-out: minimum growth inhibitory concentration (MIC)
Description: as §2

Str. pyogenes, G-36 = assay: as above; assay type: cell-based; conditions: for minimum growth inhibitory concentration (MIC): Str. pyogenes; for MIC: Streptococcus pyogenes, G36, Str. pyogenes, read-out: minimum growth inhibitory concentration (MIC)
Description: as §2

E. coli, NIHJ = assay: as above; assay type: cell-based; conditions: for MIC: Escherichia coli, read-out: minimum growth inhibitory concentration (MIC)
Description: as §2

Ps. maltophilia, IID1275 = assay: as above; assay type: cell-based; conditions: for minimum growth inhibitory concentration (MIC): Ps. maltophilia; for MIC: Stenotrophomonas maltophilia, IID1275, Ps. maltophilia, read-out: minimum growth inhibitory concentration (MIC)
Description: as §2

Pr. mirabilis, IF03849 = assay: as above; assay type: cell-based; conditions: for minimum growth inhibitory concentration (MIC): Pr. mirabilis; for MIC: Proteus mirabilis, IF03849, Pr. mirabilis, read-out: minimum growth inhibitory concentration (MIC)
Description: as §2

Ps. aeruginosa, 2128 = assay: as above; assay type: cell-based; conditions: for minimum growth inhibitory concentration (MIC): Ps. aeruginosa; for MIC: Pseudomonas aeruginosa, 2128, Ps. aeruginosa, read-out: minimum growth inhibitory concentration (MIC)
Description: as §2

Ps. cepacia, IID1340 = assay: as above; assay type: cell-based; conditions: for minimum growth inhibitory concentration (MIC): Ps. cepacia; for MIC: Burkholderia cepacia, IID1340, Ps. cepacia, read-out: minimum growth inhibitory concentration (MIC)
Description: as §2

Ser. marcescens, 13001 = assay: as above; assay type: cell-based; conditions: for minimum growth inhibitory concentration (MIC): Ser. marcescens; for MIC: Serratia marcescens, 13001, Ser. marcescens, read-out: minimum growth inhibitory concentration (MIC)
Description: as §2

Sh. flexneri, 2a5503 = assay: as above; assay type: cell-based; conditions: for MIC: Shigella flexneri, read-out: minimum growth inhibitory concentration (MIC)
Description: as §2

[3] = system: Gram-negative microorganisms; conditions: in words, prior art discussion; cited from earlier work
[4] = in words, prior art discussion; cited from earlier work

Compound | solubility at 0.5 h (physchem) [µg/mL] | Acute toxicity to mouse (mouse) | minimum growth inhibitory concentration (MIC) (S. aureus, 209P) [µg/mL] | minimum growth inhibitory concentration (MIC) (S. epidermidis, 56500) [µg/mL] | minimum growth inhibitory concentration (MIC) (Ps. aeruginosa, 2063) [µg/mL] | minimum growth inhibitory concentration (MIC) (Pr. vulgaris, 3167) [µg/mL] | minimum growth inhibitory concentration (MIC) [2] [µg/mL] | minimum growth inhibitory concentration (MIC) (Str. pyogenes, G-36) [µg/mL] | minimum growth inhibitory concentration (MIC) (E. coli, NIHJ) [µg/mL] | minimum growth inhibitory concentration (MIC) (Ps. maltophilia, IID1275) [µg/mL] | minimum growth inhibitory concentration (MIC) (Pr. mirabilis, IF03849) [µg/mL] | minimum growth inhibitory concentration (MIC) (Ps. aeruginosa, 2128) [µg/mL] | minimum growth inhibitory concentration (MIC) (Ps. cepacia, IID1340) [µg/mL] | minimum growth inhibitory concentration (MIC) (Ser. marcescens, 13001) [µg/mL] | minimum growth inhibitory concentration (MIC) (Sh. flexneri, 2a5503) [µg/mL] | MIC (S. aureus, 209P) [µg/mL] | MIC (S. epidermidis, 56500) [µg/mL] | MIC (Ps. aeruginosa, 2063) [µg/mL] | MIC (Pr. vulgaris, 3167) [µg/mL] | MIC [2] [µg/mL] | also measured
CNC(C)C1CCN(c2c(F)cc3c(=O)c(C(=O)O)cn(C4CC4)c3c2F)C1 (single isomer, unassigned) [Example 7] | 710 (≈ 1810 µM) | 1/5 | ≤ 0.05 | ≤ 0.05 | 0.20 | ≤ 0.05 | ≤ 0.05 | ≤ 0.05 | ≤ 0.05 | 0.20 | ≤ 0.05 | 0.10 | 0.78 | 0.10 | ≤ 0.05 |  |  |  |  |  | half-life [1]: 2.01 h; Cmax [1]: 2210 ng/mL; AUC(0-t) at 6 h [1]: 6310 ng·h/mL
CCNCC1CCN(c2c(F)cc3c(=O)c(C(=O)O)cn(C4CC4)c3c2F)C1 (stereo not drawn) [Compound A, 1-cyclopropyl-6,8-difluoro-(3-ethylaminomethyl-1-pyrolidinyl)-1,4-dihydro-4-oxoquinoline-3-carboxylic acid, reference compound] | 40 (≈ 102 µM) | 3/5 |  |  |  |  |  |  |  |  |  |  |  |  |  | ≤ 0.05 | ≤ 0.05 | 0.39 (≈ 0.996 µM) | 0.1 (≈ 0.255 µM) | 0.1 (≈ 0.255 µM) | antimicrobial activity against Gram-negative microorganisms (prior art compounds) [3]: strong antimicrobial activity; water-solubility (prior art compounds) [4]: extremely low water-solubility; MIC (Str. pyogenes, G-36): 0.1 µg/mL (≈ 0.255 µM); MIC (E. coli, NIHJ): ≤ 0.05 µg/mL; MIC (Ps. maltophilia, IID1275): 0.39 µg/mL (≈ 0.996 µM); MIC (Pr. mirabilis, IF03849): ≤ 0.05 µg/mL; MIC (Ps. aeruginosa, 2128): 0.2 µg/mL (≈ 0.511 µM); MIC (Ps. cepacia, IID1340): 0.78 µg/mL (≈ 1.99 µM); MIC (Ser. marcescens, 13001): 0.1 µg/mL (≈ 0.255 µM); MIC (Sh. flexneri, 2a5503): ≤ 0.05 µg/mL
CC(C)(N)C1CCN(c2c(F)cc3c(=O)c(C(=O)O)cn(C4CC4)c3c2F)C1 (stereo not drawn) [Example 11, 7-[3-(1-Amino-1-methyl)ethyl-1-pyrrolidinyl]-1-cyclopropyl-6,8-difluoro-1,4-dihydro-4-oxoquinoline-3-carboxylic acid] | 200 (≈ 511 µM) | 0/5 |  |  |  |  |  |  |  |  |  |  |  |  |  | ≤ 0.05 | ≤ 0.05 | 0.78 (≈ 1.99 µM) | ≤ 0.05 | ≤ 0.05 | half-life [1]: 2.27 h; Cmax [1]: 2100 ng/mL; AUC(0-t) at 6 h [1]: 6430 ng·h/mL; MIC (Str. pyogenes, G-36): ≤ 0.05 µg/mL; MIC (E. coli, NIHJ): ≤ 0.05 µg/mL; MIC (Ps. maltophilia, IID1275): 0.1 µg/mL (≈ 0.255 µM); MIC (Pr. mirabilis, IF03849): 0.1 µg/mL (≈ 0.255 µM); MIC (Ps. aeruginosa, 2128): 0.2 µg/mL (≈ 0.511 µM); MIC (Ps. cepacia, IID1340): 0.78 µg/mL (≈ 1.99 µM); MIC (Ser. marcescens, 13001): 0.1 µg/mL (≈ 0.255 µM); MIC (Sh. flexneri, 2a5503): ≤ 0.05 µg/mL
CC(C)(N)C1CCN(c2nc3c(cc2F)c(=O)c(C(=O)O)cn3C2CC2)C1 (stereo not drawn) [Example 13, 7-[3-(1-Amino-1-methyl)ethyl-1-pyrrolidinyl]-1-cyclo-propyl-6-difluoro-1,4-dihydro-4-oxo-1,8-naphthyridine-3-carboxylic acid] | 2000 (≈ 5340 µM) | 1/5 |  |  |  |  |  |  |  |  |  |  |  |  |  | ≤ 0.05 | ≤ 0.05 | 0.39 (≈ 1.04 µM) | 0.1 (≈ 0.267 µM) | 0.2 (≈ 0.534 µM) | half-life [1]: 2.41 h; Cmax [1]: 2140 ng/mL; AUC(0-t) at 6 h [1]: 7950 ng·h/mL; MIC (Str. pyogenes, G-36): 0.1 µg/mL (≈ 0.267 µM); MIC (E. coli, NIHJ): ≤ 0.05 µg/mL; MIC (Ps. maltophilia, IID1275): 0.2 µg/mL (≈ 0.534 µM); MIC (Pr. mirabilis, IF03849): 0.39 µg/mL (≈ 1.04 µM); MIC (Ps. aeruginosa, 2128): 0.2 µg/mL (≈ 0.534 µM); MIC (Ps. cepacia, IID1340): 0.78 µg/mL (≈ 2.08 µM); MIC (Ser. marcescens, 13001): 0.2 µg/mL (≈ 0.534 µM); MIC (Sh. flexneri, 2a5503): ≤ 0.05 µg/mL
CCn1cc(C(=O)O)c(=O)c2cc(F)c(N3CCC(C4(N)CC4)C3)c(F)c21 (stereo not drawn) [Example 16, 7-[3-(1-aminocyclopropyl)-1-pyrrolidinyl]-1-ethyl-6,8-difluoro-1,4-dihydro-4-oxoquinoline-3-carboxylic acid] |  |  |  |  |  |  |  |  |  |  |  |  |  |  |  | ≤ 0.05 | 0.2 (≈ 0.53 µM) | 1.56 (≈ 4.13 µM) | 0.2 (≈ 0.53 µM) | 0.39 (≈ 1.03 µM) | MIC (Str. pyogenes, G-36): 0.2 µg/mL (≈ 0.53 µM); MIC (E. coli, NIHJ): ≤ 0.05 µg/mL; MIC (Ps. maltophilia, IID1275): 0.39 µg/mL (≈ 1.03 µM); MIC (Pr. mirabilis, IF03849): 0.39 µg/mL (≈ 1.03 µM); MIC (Ps. aeruginosa, 2128): 0.39 µg/mL (≈ 1.03 µM); MIC (Ps. cepacia, IID1340): 0.78 µg/mL (≈ 2.07 µM); MIC (Ser. marcescens, 13001): 0.39 µg/mL (≈ 1.03 µM); MIC (Sh. flexneri, 2a5503): ≤ 0.05 µg/mL
CC(N)C1CCN(c2nc3c(cc2F)c(=O)c(C(=O)O)cn3C2CC2)C1 (stereo not drawn) [Example 18, 7-[3-(1-Aminoethyl)-1-pyrrolidinyl]-1-1-cyclopropyl-6-fluoro-1,4-dihydro-4-oxo-1,8-naphthylidine-3-carboxylic acid] |  |  | ≤ 0.05 | ≤ 0.05 | 0.39 | 0.10 | 0.20 | 0.39 | ≤ 0.05 | 0.20 | 0.20 | 0.20 | 0.39 | 0.20 | ≤ 0.05 |  |  |  |  |  | 
CC(N)C1CCN(c2nc3c(cc2F)c(=O)c(C(=O)O)cn3C2CC2)C1 (stereo not drawn) [Example 19] |  |  | ≤ 0.05 | ≤ 0.05 | 0.20 | ≤ 0.05 | 0.10 | 0.20 | ≤ 0.05 | 0.20 | 0.10 | ≤ 0.05 | 0.39 | ≤ 0.05 | ≤ 0.05 |  |  |  |  |  | 
CCC(N)C1CCN(c2c(F)cc3c(=O)c(C(=O)O)cn(C4CC4)c3c2F)C1 (stereo not drawn) [Example 22] |  |  | ≤ 0.05 | ≤ 0.05 | 0.39 | ≤ 0.05 | 0.20 | 0.20 | ≤ 0.05 | 0.20 | 0.10 | 0.20 | 0.20 | 0.10 | ≤ 0.05 |  |  |  |  |  | 
